ChEMBL document CHEMBL1201862, “PubChem BioAssay data set” (2004)
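Results reflect a 48-hour exposure of cells in 96-well plates to compound at five concentrations. At the GI50, growth is halved.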 The source made the active and inactive calls. No stated cut-off is given here; in the data, active = GI50 up to about 1.1 µM and inactive = higher.

Experiments:
Test in all cases: NCI anticancer screen, dose series, 48 h
[1] = tested on: SK-MEL-5
[2] = tested on: HCT-116
[3] = tested on: OVCAR-8
[4] = tested on: OVCAR-5
[5] = tested on: CAKI-1
[6] = tested on: TK-10
[7] = tested on: IGROV-1
[8] = tested on: A549
[9] = tested on: SN12C
[10] = tested on: KM-20L2
[11] = tested on: SNB-19
[12] = tested on: HL-60
[13] = tested on: RXF 393
[14] = tested on: 786-0
[15] = tested on: KM12
[16] = tested on: NCI-H460
[17] = tested on: CCRF-CEM
[18] = tested on: SK-OV-3

Measured: GI50

COC(=O)C(=Cc1cc(OC)c(OC)c(OC)c1-c1cc2c(cc1C1(C)OCCS1)OCO2)C(=O)OC (centres undefined)
inactive: [1] 26.4 µM | [2] 24.6 µM | [3] 31.6 µM | [4] > 100 µM | [5] 19.3 µM | [6] 86.9 µM | [7] 16.3 µM | [8] 29.1 µM | [9] 44.5 µM | [10] 22.3 µM | [11] 98.9 µM | [12] 24.9 µM | [13] 26.7 µM | [14] 38.8 µM | [15] 19.1 µM | [16] 26.6 µM | [17] 33 µM | [18] 38.3 µM

COc1ccc(COC2CC(OC)OC(C)C2OC(=O)c2ccccc2)cc1 (centres undefined)
inactive: [1] 17 µM | [2] 28.6 µM | [3] 31.6 µM | [4] 30.2 µM | [5] 36.5 µM | [6] 63.7 µM | [7] 90.4 µM | [8] 33 µM | [9] 57.4 µM | [10] 14.7 µM | [11] > 64.9 µM | [12] 20.7 µM | [13] 19.1 µM | [14] 74.1 µM | [15] 34.8 µM | [16] 36.7 µM | [17] 30.3 µM | [18] > 100 µM

CCC12CCCN(Cc3ccccc3)C1c1c(n(C)c3ccccc13)[C@H](C(=O)OC)C2 (some centres undefined)
inactive: [1] 142 µM | [2] 146 µM | [3] > 239 µM | [4] 147 µM | [5] 173 µM | [6] > 239 µM | [7] > 239 µM | [8] > 239 µM | [9] 224 µM | [10] 120 µM | [11] > 239 µM | [12] > 239 µM | [13] > 239 µM | [14] > 239 µM | [15] > 239 µM | [16] > 239 µM | [17] > 239 µM | [18] > 239 µM

Cc1cc(S(=O)(=O)O)c(NC(=O)C(=O)Cc2cc(=O)oc3cc(O)ccc23)cc1Cl
inactive: [1] > 100 µM | [2] > 100 µM | [3] > 100 µM | [4] > 100 µM | [5] > 100 µM | [6] > 100 µM | [7] > 100 µM | [8] > 100 µM | [9] > 100 µM | [10] > 100 µM | [11] > 100 µM | [12] > 100 µM | [13] > 100 µM | [14] > 100 µM | [15] > 100 µM | [16] > 100 µM | [17] > 100 µM | [18] > 100 µM

O=C(O)CCCCCO
inactive: [1] > 100 µM | [2] > 100 µM | [3] > 100 µM | [4] > 100 µM | [5] > 100 µM | [6] > 100 µM | [7] > 100 µM | [8] > 100 µM | [9] > 100 µM | [10] > 100 µM | [11] > 100 µM | [12] > 100 µM | [13] > 100 µM | [14] > 100 µM | [15] > 100 µM | [16] > 100 µM | [17] > 100 µM | [18] > 100 µM

COc1ccc(NC(=O)/C(=N/O)C(C)=O)cc1
inactive: [1] > 100 µM | [2] 96.8 µM | [3] > 100 µM | [4] > 100 µM | [5] > 100 µM | [6] > 100 µM | [7] > 100 µM | [8] > 100 µM | [9] > 100 µM | [10] 87.9 µM | [11] > 100 µM | [12] > 100 µM | [13] > 100 µM | [14] 45.1 µM | [15] > 100 µM | [16] 23.5 µM | [17] 75.3 µM | [18] > 100 µM

CC(=O)C1C(=O)C(=O)N(c2ccccc2C(C)C)C1=O (centres undefined)
inactive: [1] > 100 µM | [2] > 100 µM | [3] > 100 µM | [4] > 100 µM | [5] > 100 µM | [6] > 100 µM | [7] > 100 µM | [8] > 100 µM | [9] > 100 µM | [10] > 100 µM | [11] > 100 µM | [12] > 100 µM | [13] > 100 µM | [14] > 100 µM | [15] > 100 µM | [16] > 100 µM | [17] > 100 µM | [18] > 100 µM

COc1ccc(O)cc1 [MEQUINOL]
inactive: [1] 42.8 µM | [2] > 100 µM | [3] 55.7 µM | [4] 35.4 µM | [5] 94.4 µM | [6] > 100 µM | [7] > 100 µM | [8] > 100 µM | [9] > 100 µM | [10] 28.6 µM | [11] > 100 µM | [12] 44.1 µM | [13] > 100 µM | [14] 92 µM | [15] 42.7 µM | [16] 97.1 µM | [17] 60.3 µM | [18] > 100 µM
